Target: T1, Human NK1 Receptor (Homo sapiens, UniProt P25103)
T1 construct: endogenous in cells; host or cells: Human lymphoma IM9 cells (whole cells)
Experiment: In Vitro Human NK1 Receptor Binding Assay ([125I]Bolton-Hunter substance P displacement, IM9 cells)
Settings: Human lymphoma IM9 cells, [125I]Bolton-Hunter substance P (0.05-0.1 nM), 50 min at 21° C.; Table 1; read-out: NK1 binding IC50
Outline: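 Radioligand displacement on whole IM9 human lymphoma cells (2.5×10^6 cells/mL) using [125I]Bolton-Hunter substance P (0.05-0.1 nM), 50 min at 21° C in Tris pH 7.4/MnCl2 buffer with protease inhibitors. Non-specific binding defined by […] [Sar9, Met(O2)11] substance P. Filtration, gamma counting, iterative curve fitting.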

T1 sequence (P25103 whole entry): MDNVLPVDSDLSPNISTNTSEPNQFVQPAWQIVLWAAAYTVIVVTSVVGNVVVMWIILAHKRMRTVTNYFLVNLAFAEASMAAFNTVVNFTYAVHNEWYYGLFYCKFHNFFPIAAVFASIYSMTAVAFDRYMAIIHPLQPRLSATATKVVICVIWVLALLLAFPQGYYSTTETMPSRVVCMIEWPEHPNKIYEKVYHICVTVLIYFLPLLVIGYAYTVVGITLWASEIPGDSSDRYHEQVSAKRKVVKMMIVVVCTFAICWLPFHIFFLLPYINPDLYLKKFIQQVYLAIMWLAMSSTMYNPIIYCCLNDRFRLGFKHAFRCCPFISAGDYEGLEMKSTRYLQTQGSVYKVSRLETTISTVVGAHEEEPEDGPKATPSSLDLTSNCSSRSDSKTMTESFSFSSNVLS

Row | SMILES | IC50 [nM]
1 | C[C@H](NC(=O)[C@@](C)(Cc1c[nH]c2ccccc12)NCc1ccn[nH]1)c1ccccc1 (relative stereo) [Example 21, 3-(1H-Indol-3-yl)-2-methyl-N-(1-phenyl-ethyl)-2-[(2H-pyrazol-3-ylmethyl)-amino]-propionamide, [R-(R*,S*)]] | 1810

Same assay, conditions: Human lymphoma IM9 cells, [125I]Bolton-Hunter substance P; Table 3, array-synthesis products; read-out: IC50 (nM) hNK1

Row | SMILES | IC50 [nM]
2 | O=C(NCc1cccc(Cl)c1)C(Cc1c[nH]c2ccccc12)NCc1cc2ccccc2o1 (stereo not drawn) [Example 263, 2-[(Benzofuran-2-ylmethyl)-amino]-N-(3-chloro-benzyl)-3-(1H-indol-3-yl)-propionamide] | 9
3 | CN1CCCC1CCNC(=O)C(Cc1c[nH]c2ccccc12)NCc1cc2ccccc2o1 (stereo not drawn) [Example 198, 2-[(Benzofuran-2-ylmethyl)-amino]-3-(1H-indol-3-yl)-N-[2-(1-methyl-pyrrolidin-2-yl)-ethyl]-propionamide] | > 10000

Same assay, conditions: Table 4; [125I]Bolton-Hunter substance P displacement, human IM9 cells; read-out: IC50 (nM) hNK1

Row | SMILES | IC50 [nM]
4 | CNS(=O)(=O)c1cc(CNC(C)(Cc2c[nH]c3ccccc23)C(=O)NC(C)c2ccccc2)ccc1Cl (stereo not drawn) [compound 326, 2-(4-Chloro-3-methylsulfamoyl-benzylamino)-3-(1H-indo1-3-yl)-2-methyl-N-(1-phenyl-ethyl)-propionamide] | 4830
5 | CC(NC(=O)C(C)(Cc1c[nH]c2ccccc12)NCc1c2ccccc2cc2ccccc12)c1ccccc1 (stereo not drawn) [compound 346, 2-[(Anthracen-9-ylmethyl)-amino]-3-(1H-indol-3-yl)-2-methyl-N-(1-phenyl-ethyl)-propionamide] | > 10000
6 | CC(NC(=O)C(C)(Cc1c[nH]c2ccccc12)NCc1ccccc1Sc1ccc(Cl)cc1)c1ccccc1 (stereo not drawn) [compound 350, 2-[2-(4-Chloro-phenylsulfanyl)-benzylamino]-3-(1H-indol-3-yl)-2-methyl-N-(1-phenyl-ethyl)-propionamide] | > 10000
7 | CC(NC(=O)C(C)(Cc1c[nH]c2ccccc12)NCc1ccncc1)c1ccccc1 (stereo not drawn) [compound 359, 3-(1H-Indol-3-yl)-2-methyl-N-(1-phenyl-ethyl)-2-[(pyridin-4-ylmethyl)-amino]-propionamide] | 3710
8 | CC(NC(=O)C(C)(Cc1c[nH]c2ccccc12)NCc1ccc2c(c1)Cc1ccccc1-2)c1ccccc1 (stereo not drawn) [compound 354, 2-[(9H-Fluoren-2-ylmethyl)-amino]-3-(1H-indol-3-yl)-2-methyl-N-(1-phenyl-ethyl)-propionamide] | 1730

Same assay, conditions: Table 5; [125I]Bolton-Hunter substance P displacement, human IM9 cells; read-out: IC50 (nM) hNK1

Row | SMILES | IC50 [nM]
9 | CC(NC(=O)C(Cc1c[nH]c2ccccc12)NCc1coc2ccccc2c1=O)c1ccccc1 (stereo not drawn) [compound 371] | > 10000
10 | CSc1ccc(CNC(Cc2c[nH]c3ccccc23)C(=O)NC(C)c2ccccc2)cc1 (stereo not drawn) [compound 383] | 252
11 | CC(NC(=O)C(Cc1c[nH]c2ccccc12)NCc1ccc(N2CCOCC2)cc1Cl)c1ccccc1 (stereo not drawn) [compound 368] | 2240

Same assay, conditions: human NK1 receptor, IM9 cells, [125I]Bolton-Hunter substance P; read-out: IC50 (nM) hNK1

Row | SMILES | IC50 [nM]
12 | CNCCNC(=O)C(C)(Cc1c[nH]c2ccccc12)NCc1cc2ccccc2o1 (stereo not drawn) [compound 76, 2-[(Benzofuran-2-ylmethyl)-amino]-3-(1H-indol-3-yl)-2-methyl-N-(2-methylamino-ethyl)-propionamide] | 3700
13 | CC(Cc1c[nH]c2ccccc12)(NCc1cc2ccccc2o1)C(=O)NCCc1ccc(S(N)(=O)=O)cc1 (stereo not drawn) [compound 47, 2-[(Benzofuran-2-ylmethyl)-amino]-3-(1H-indol-3-yl)-2-methyl-N-[2-(4-sulfamoyl-phenyl)-ethyl]-propionamide] | 7620
14 | CC(Cc1c[nH]c2ccccc12)(NCc1cc2ccccc2o1)C(=O)NCC(C)(C)c1ccccc1 (stereo not drawn) [compound 133, 2-[(Benzofuran-2-ylmethyl)-amino]-3-(1H-indol-3-yl)-2-methyl-N-(2-methyl-2-phenyl-propyl)-propionamide] | 4480
15 | CC(Cc1c[nH]c2ccccc12)(NCc1cc2ccccc2o1)C(=O)NC(CO)c1ccccc1 (stereo not drawn) [compound 29, 2-[(Benzofuran-2-ylmethyl)-amino]-N-(2-hydroxy-1-phenyl-ethyl)-3-(1H-indol-3-yl)-2-methyl-propionamide] | 7
16 | CC(Cc1cccc(C(F)(F)F)c1)NC(=O)C(C)(Cc1c[nH]c2ccccc12)NCc1cc2ccccc2o1 (stereo not drawn) [compound 79, 2-[(Benzofuran-2-ylmethyl)-amino]-3-(1H-indol-3-yl)-2-methyl-N-[1-methyl-2-(3-trifluoromethyl-phenyl)-ethyl]-propionamide] | > 10000
17 | CC(NC(=O)C(C)(Cc1c[nH]c2ccccc12)NCc1cc2ccccc2o1)c1ccc(F)cc1 (stereo not drawn) [compound 33, 2-[(Benzofuran-2-ylmethyl)-amino]-N-[1-(4-fluoro-phenyl)-ethyl]-3-(1H-indol-3-yl)-2-methyl-propionamide] | 9
18 | CC(NC(=O)C(C)(Cc1c[nH]c2ccccc12)NCc1cc2ccccc2o1)c1cccc2ccccc12 (stereo not drawn) [compound 31, 2-[(Benzofuran-2-ylmethyl)amino]-3-(1H-indol-3-yl)-2-methyl-N-(1-naphthalen-1-yl-ethyl)-propionamide] | > 10000
19 | CC(Cc1c[nH]c2ccccc12)(NCc1cc2ccccc2o1)C(=O)NCc1cccnc1 (stereo not drawn) [compound 24, 2-[(Benzofuran-2-ylmethyl)-amino]-3-(1H-indol-3-yl)-2-methyl-N-pyridin-3-ylmethyl-propionamide] | 547
20 | CC(Cc1c[nH]c2ccccc12)(NCc1cc2ccccc2o1)C(=O)NCc1ccc([N+](=O)[O-])cc1 (stereo not drawn) [compound 119, 2-[(Benzofuran-2-ylmethyl)-amino]-3-(1H-indol-3-yl)-2-methyl-N-(4-nitro-benzyl)-propionamide] | 89
21 | CC(Cc1c[nH]c2ccccc12)(NCc1cc2ccccc2o1)C(=O)NCc1nc2ccccc2[nH]1 (stereo not drawn) [compound 103, 2-[(Benzofuran-2-ylmethyl)-amino]-N-(1H-benzoimidazol-2-ylmethyl)-3-(1H-indol-3-yl)-2-methyl-propionamide] | 74
22 | CC(NC(=O)C(C)(Cc1c[nH]c2ccccc12)NCc1cc2ccccc2o1)c1ccc(N(C)C)cc1 (stereo not drawn) [compound 39, 2-[(Benzofuran-2-ylmethyl)-amino]-N-[1-(4-dimethylamino-phenyl)-ethyl]-3-(1H-indol-3-yl)-2-methyl-propionamide] | 863
23 | CC(Cc1c[nH]c2ccccc12)(NCc1cc2ccccc2o1)C(=O)NCCn1cccc1 (stereo not drawn) [compound 121, 2-[(Benzofuran-2-ylmethyl)-amino]-3-(1H-indol-3-yl)-2-methyl-N-(2-pyrrol-1-yl-ethyl)-propionamide] | 654
24 | CC(Cc1c[nH]c2ccccc12)(NCc1cc2ccccc2o1)C(=O)NCc1c(F)cccc1F (stereo not drawn) [compound 190, 2-[(Benzofuran-2-ylmethyl)-amino]-N-(2,6-difluoro-benzyl)-3-(1H-indol-3-yl)-2-methyl-propionamide] | 3540
25 | CN(C)c1ccc(CNC(=O)C(C)(Cc2c[nH]c3ccccc23)NCc2cc3ccccc3o2)cc1 (stereo not drawn) [compound 60, 2-[(Benzofuran-2-ylmethyl)-amino]-N-(4-dimethylamino-benzyl)-3-(1H-indol-3-yl)-2-methyl-propionamide] | 964
26 | CC(NC(=O)C(C)(Cc1c[nH]c2ccccc12)NCc1cc2ccccc2o1)c1cccc(N(C)C)c1 (stereo not drawn) [compound 40, 2-[(Benzofuran-2-ylmethyl)-amino)-N-[1-(3-dimethylamino-phenyl)-ethyl]-3-(1H-indol-3-yl)-2-methyl-propionamide] | 1060
27 | CC(NC(=O)C(C)(Cc1c[nH]c2ccccc12)NCc1cc2ccccc2o1)c1ccc(Cl)s1 (stereo not drawn) [compound 118, 2-[(Benzofuran-2-ylmethyl)-amino]-N-[1-(5-chloro-thiophen-2-yl)-ethyl]-3-(1H-indol-3-yl)-2-methyl-propionamide] | 45

— patent publication US6472418B1, “Non-peptide NK1 receptors antagonists” (Warner-Lambert Company, priority 1998, dated 2002)
